Reference: patent publication US20180255776A1, “HERBICIDAL COMPOSITIONS CONTAINING 4-AMINO-3-CHLORO-6-(4-CHLORO-2-FLUORO-3-METHOXYPHENYL) PYRIDINE-2-CARBOXYLIC ACID OR A DERIVATIVE THEREOF, A TRIAZOLOPYRIMIDINE SULFONAMIDE HERBICIDE OR A DERIVATIVE THEREOF, AND GLYPHOSATE OR A DERIVATIVE THEREOF” (DOW AGROSCIENCES LLC, priority 2015, published 2018)
Structures can show the parent of a compound that is named as a salt.

What was measured:
Test in all cases: Post-emergence field trial, visual % weed control
Assay type in all cases: in vivo
[1] = test system: Commelina benghalensis (hairy wandering Jew, COMBE); conditions: 35DAA, Glyphosate DMA salt 960 g ai/ha
Method: (§1) Treatments consisted of the methyl ester of 4-amino-3-chloro-6-(4-chloro-2-fluoro-3-methoxyphenyl)pyridine-2-carboxylic acid (Cmpd 1) and diclosulam in combination as GF-3220. […] Glyphosate dimethylammonium salt was applied as various commercial formulations containing 480 grams acid equivalent per liter (g ae/L).
(§2) Field trials were conducted under standard field conditions. Plot sizes varied from 3-4 meters (m) wide by 5-10 m long. Treatments were applied with small plot backpack sprayers, using pressurized carbon dioxide (CO2) as propellant. Pressure varied from 30-50 pounds per square inch (PSI), with spray tips typically of a Flat Fan type applying water diluent at 100-150 liters per hectare (L/ha). Boom sizes varied from 3-4 m in width. Weed sizes varied, but all treatments were applied as post-emergence treatments to weeds from 2 leaf to 2 tiller growth stages varying from 2-15 inches in height. No additional adjuvant was mixed with the treatments applied in the field.
(§3) The weed spectrum included, but was not limited to, Commelina benghalensis (hairy wandering Jew, COMBE), Echinochloa crus-galli (barnyardgrass, ECHCG), Euphorbia heterophylla (wild poinsettia, EPHHL), Conyza bonariensis (hairy fleabane, ERIBO), Conyza canadensis (horseweed, ERICA), Conyza sumatrensis (Guernsey fleabane, ERISU) and Ipomoea grandifolia (Corda-de-viola, IAQGR).
(§4) The values reported are percent (%) control visually rated. The predicted percent (%) weed control was determined using Colby's equation.

[2] = test system: Conyza bonariensis (hairy fleabane, ERIBO); conditions: Glyphosate DMA salt 960 g ai/ha
Method: as §1, §2, §3, §4

[3] = test system: Conyza canadensis (horseweed, ERICA); conditions: Glyphosate DMA salt 1200 g ai/ha
Method: as §1, §2, §3, §4

[4] = test system: Conyza sumatrensis (Guernsey fleabane, ERISU); conditions: Glyphosate DMA salt 1200 g ai/ha
Method: as §1, §2, §3, §4

[5] = test system: Euphorbia heterophylla (wild poinsettia, EPHHL); conditions: 35DAA, Glyphosate DMA salt 960 g ai/ha
Method: as §1, §2, §3, §4

[6] = test system: Ipomoea grandifolia (Corda-de-viola, IAQGR); conditions: Glyphosate DMA salt 960 g ai/ha
Method: as §1, §2, §3, §4

Structure (SMILES): O=C(O)CNCP(=O)(O)O [Glyphosate DMA salt, Glyphosate dimethylammonium salt]
- Mean % weed control [1]: 62.0%
- Mean % weed control ([2]; 9DAA): 10.0%
- Mean % weed control ([2]; 14DAA): 40.0%
- Mean % weed control ([2]; 35DAA): 25.0%
- Mean % weed control ([2]; 67DAA): 20.0%
- Mean % weed control ([3]; 46DAA): 25.0%
- Mean % weed control ([3]; 62DAA): 20.0%
- Mean % weed control ([4]; 19DAA): 19.0%
- Mean % weed control ([4]; 29DAA): 17.0%
- Mean % weed control [5]: 7.5%
- Mean % weed control ([6]; 14DAA): 40.0%
- Mean % weed control ([6]; 28DAA): 45.0%
